Measured values: patent publication US20100197600A1, “USE OF THE PEPTIDE HIS-SER-LEU-GLY-LYS-TRP-LEU-GLY-HIS-PRO-ASP-LYS-PHE ALONE OR IN COMBINATION WITH THE PEPTIDE PRO-GLY-THR-CYS-GLU-ILE-CYS-ALA-TYR-ALA-ALA-CYS-THR-GLY-CYS-OH AS A THERAPEUTIC AGENT” (priority 2007, published 2010)
No end group written: not given here.

Legend:
HIV-1IIIB = experiment: HIV-1 antiviral (cytopathic effect) assay in CEM-SS cells; settings: for antiviral activity of positive control compounds: HIV-1IIIB in CEM-SS cells; for reduction of the cytopathic effect (CPE) in HIV-1 infected CEM-SS cells: 10 micrograms per ml, HIV-1IIIB, MTS readout
HCMV strain AD169 = experiment: HCMV plaque formation assay in MRC-5 cells; settings: for inhibition of HCMV plaque formation as compared to the virus control experiment: 10 micrograms per ml, MRC-5 cells, 7-10 days
[1] = tested on: hepatitis B virus (HBV) ayw strain; experiment: HBV experimental assay system (secreted HBV DNA, TaqMan PCR); assay type: cell-based; settings: 10 micrograms per ml; HepG2-2.2.15 cells; HBV DNA after six days
murine spleen cells = experiment: Th1/Th2 cytokine profiling assay; assay type: cell-based, mouse; settings: 10 micrograms per ml; Ovalbumin-restimulated murine spleen cells; 72 hours
[2] = tested on: Primary Human endothelial cells (HUVEC); experiment: Endothelial cell migration assay; assay type: cell-based; settings: 10 micrograms per ml, 22 hours
HUVEC = experiment: Endothelial tube formation assay; assay type: cell-based, human; settings: 10 micrograms per ml, 20 hours
Description: Positive control wes vehicle only.

Streptococcus pneumoniae = Streptococcus pneumoniae assay; settings: 10 micrograms per ml; visual reading

Cc1cn([C@H]2C[C@H](N=[N+]=[N-])[C@@H](CO)O2)c(=O)[nH]c1=O [AZT, zidovudine, reference compound]
antiviral activity of positive control compounds (HIV-1IIIB): expected levels of antiviral activity

Nc1nc(O)c2ncn(COC(CO)CO)c2n1 [Ganciclovir, reference compound]
antiviral activity of positive control compound (HCMV strain AD169; positive control, HCMV in MRC-5 cells): expected levels of antiviral activity

CC(C)(C)NC(=O)[C@@H]1CN(Cc2cccnc2)CCN1C[C@@H](O)C[C@@H](Cc1ccccc1)C(=O)N[C@H]1c2ccccc2C[C@H]1O [indinavir, reference compound]
antiviral activity of positive control compounds (HIV-1IIIB): expected levels of antiviral activity

His-Ser-Leu-Gly-Lys-Trp-Leu-Gly-His-Pro-Asp-Lys-Phe (HSLGKWLGHPDKF; printed: His-Ser-Leu-Gly-Lys-Trp-Leu-Gly-His-Pro-Asp-Lys-Phe) [Peptide 1]
inhibition of HBV replication as compared to the virus control infection [1]: 43.4% | change of the production of IL-5 (murine spleen cells): did not significantly change | decrease of the production of IFN-γ (murine spleen cells): did not significantly change | increase (induction) of the production of TNF-α (murine spleen cells): 21.2% | increase of the production of IL-2 (murine spleen cells): 106.5% | increase of the production of IL-4 (murine spleen cells): 117.8% | inhibition of the migration of human endothelial cells [2]: 12% | inhibition of the tube formation of human endothelial cells (HUVEC): 10% | inhibition of the growth of Streptococcus pneumoniae (Streptococcus pneumoniae): 100% | inhibition of HCMV plaque formation as compared to the virus control experiment (HCMV strain AD169): did not inhibit | reduction of the cytopathic effect (CPE) in HIV-1 infected CEM-SS cells (HIV-1IIIB): 43.9%

Pro-Gly-Thr-Cys-Glu-Ile-Cys-Ala-Tyr-Ala-Ala-Cys-Thr-Gly-Cys-OH (PGTCEICAYAACTGC-OH; cysteine pairing not given here) [Peptide 2]
inhibition of HBV replication as compared to the virus control infection [1]: 21.7% | change of the production of IL-5 (murine spleen cells): did not significantly change | decrease of the production of IFN-γ (murine spleen cells): 38% | increase (induction) of the production of TNF-α (murine spleen cells): did not significantly change | increase of the production of IL-2 (murine spleen cells): 35.5% | increase of the production of IL-4 (murine spleen cells): 43.8% | inhibition of the migration of human endothelial cells [2]: 24% | inhibition of the tube formation of human endothelial cells (HUVEC): 10% | inhibition of the growth of Streptococcus pneumoniae (Streptococcus pneumoniae): no effect | inhibition of HCMV plaque formation as compared to the virus control experiment (HCMV strain AD169): did not inhibit | reduction of the cytopathic effect (CPE) in HIV-1 infected CEM-SS cells (HIV-1IIIB): 13.2%
